The values below come from ChEMBL document CHEMBL2040842, “Synthesis and Biochemical Testing of 3-(Carboxyphenylethyl)imidazo[2,1-f][1,2,4]triazines as Inhibitors of AMP Deaminase” (ACS Med Chem Lett, 2010).

A short description of experiment [1]: Inhibition of AMP deaminase.
A short description of experiment [2]: Inhibition of human recombinant AMPD2-1A/2 expressed in Sf9 cells.
The next experiment deals with T1, AMP deaminase 3 (Homo sapiens, UniProt Q01432).
T1 sequence (Q01432 whole entry): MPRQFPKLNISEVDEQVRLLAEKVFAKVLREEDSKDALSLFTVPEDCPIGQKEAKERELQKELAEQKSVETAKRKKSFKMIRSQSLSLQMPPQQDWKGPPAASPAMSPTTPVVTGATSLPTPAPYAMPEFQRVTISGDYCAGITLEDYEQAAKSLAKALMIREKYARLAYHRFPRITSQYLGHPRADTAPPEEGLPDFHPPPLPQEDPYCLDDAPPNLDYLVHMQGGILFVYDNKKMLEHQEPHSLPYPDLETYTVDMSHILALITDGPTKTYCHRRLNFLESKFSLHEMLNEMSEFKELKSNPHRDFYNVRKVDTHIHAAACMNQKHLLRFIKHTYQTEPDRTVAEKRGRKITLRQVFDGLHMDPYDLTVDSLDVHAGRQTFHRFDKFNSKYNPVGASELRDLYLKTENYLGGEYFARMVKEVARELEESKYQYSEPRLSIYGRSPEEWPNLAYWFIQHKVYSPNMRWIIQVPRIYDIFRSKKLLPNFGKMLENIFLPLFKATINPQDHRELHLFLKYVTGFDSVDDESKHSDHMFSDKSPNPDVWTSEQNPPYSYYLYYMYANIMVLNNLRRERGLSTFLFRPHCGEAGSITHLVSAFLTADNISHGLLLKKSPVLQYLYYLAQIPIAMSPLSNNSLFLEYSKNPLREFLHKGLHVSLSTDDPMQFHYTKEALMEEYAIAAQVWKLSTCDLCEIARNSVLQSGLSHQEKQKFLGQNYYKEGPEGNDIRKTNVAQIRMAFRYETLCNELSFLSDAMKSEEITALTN
Briefly: Inhibition of human recombinant AMPD3-1b expressed in Sf9 cells.

In the next experiment the target is AMP deaminase (Arabidopsis thaliana, UniProt O80452, V211M). The experiment is described as follows: Inhibition of Arabidopsis recombinant AMPD deltaV211M mutant expressed in Sf9 cells.
Sequence of AMP deaminase (O80452 whole entry V211M): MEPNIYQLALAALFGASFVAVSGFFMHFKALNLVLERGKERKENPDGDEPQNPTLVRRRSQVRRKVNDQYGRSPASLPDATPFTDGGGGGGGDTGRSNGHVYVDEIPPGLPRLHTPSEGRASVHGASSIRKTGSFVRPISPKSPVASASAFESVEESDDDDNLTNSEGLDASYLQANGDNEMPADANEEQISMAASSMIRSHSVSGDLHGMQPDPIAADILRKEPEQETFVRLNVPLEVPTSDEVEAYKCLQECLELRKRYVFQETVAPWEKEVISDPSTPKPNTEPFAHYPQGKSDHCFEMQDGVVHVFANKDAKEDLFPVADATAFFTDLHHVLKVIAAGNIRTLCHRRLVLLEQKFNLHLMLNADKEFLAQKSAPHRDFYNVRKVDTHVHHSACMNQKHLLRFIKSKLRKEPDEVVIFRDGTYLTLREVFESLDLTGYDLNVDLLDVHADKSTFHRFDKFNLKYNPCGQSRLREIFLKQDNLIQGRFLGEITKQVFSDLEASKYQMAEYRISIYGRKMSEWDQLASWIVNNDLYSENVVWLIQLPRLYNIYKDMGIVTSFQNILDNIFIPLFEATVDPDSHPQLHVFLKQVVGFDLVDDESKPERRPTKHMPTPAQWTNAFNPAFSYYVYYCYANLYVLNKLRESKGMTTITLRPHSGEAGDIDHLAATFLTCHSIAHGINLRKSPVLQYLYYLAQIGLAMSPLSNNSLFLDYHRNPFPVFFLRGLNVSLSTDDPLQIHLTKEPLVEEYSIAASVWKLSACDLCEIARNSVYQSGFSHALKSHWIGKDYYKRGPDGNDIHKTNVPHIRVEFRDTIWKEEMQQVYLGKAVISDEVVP
A short description of experiment [3]: Inhibition of human recombinant AMPD1 deltaM54 mutant expressed in Sf9 cells.
Another experiment addresses T2, AMP deaminase 1 (Homo sapiens, UniProt P23109).
T2 sequence (P23109 whole entry): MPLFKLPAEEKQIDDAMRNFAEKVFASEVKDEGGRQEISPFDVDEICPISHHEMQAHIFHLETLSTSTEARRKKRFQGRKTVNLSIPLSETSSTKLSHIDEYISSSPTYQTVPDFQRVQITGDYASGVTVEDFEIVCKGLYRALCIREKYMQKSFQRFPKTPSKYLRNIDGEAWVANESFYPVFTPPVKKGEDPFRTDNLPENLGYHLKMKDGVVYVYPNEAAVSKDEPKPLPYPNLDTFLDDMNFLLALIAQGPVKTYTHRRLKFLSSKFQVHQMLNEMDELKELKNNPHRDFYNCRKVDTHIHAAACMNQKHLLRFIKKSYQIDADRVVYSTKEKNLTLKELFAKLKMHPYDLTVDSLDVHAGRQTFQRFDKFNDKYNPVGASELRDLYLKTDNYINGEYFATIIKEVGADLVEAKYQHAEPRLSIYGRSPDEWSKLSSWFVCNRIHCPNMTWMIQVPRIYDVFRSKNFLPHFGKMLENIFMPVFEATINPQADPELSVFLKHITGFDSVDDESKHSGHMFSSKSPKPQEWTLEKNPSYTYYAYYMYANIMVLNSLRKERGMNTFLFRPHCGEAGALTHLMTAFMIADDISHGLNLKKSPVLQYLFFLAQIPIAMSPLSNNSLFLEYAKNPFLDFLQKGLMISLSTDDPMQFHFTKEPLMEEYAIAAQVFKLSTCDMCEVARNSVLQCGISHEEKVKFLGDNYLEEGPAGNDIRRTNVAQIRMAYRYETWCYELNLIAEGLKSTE
Briefly: Inhibition of human skeletal muscle AMPD1. More on the design: species or system Muscle tissue.

Experiment [4] is described as follows: Inhibition of porcine heart AMPD3. More on the design: species or system Sus scrofa.

Compound `O=P(O)(O)OC[C@H]1O[C@@H](n2cnc3c2N=CNC[C@H]3O)[C@H](O)[C@@H]1O` returned an inhibition constant Ki in experiment [1] of 5.5 pM.

On to `O=C(O)c1cccc(CCc2cnc3cncnn23)c1`, for which the concentration for half-maximal inhibition (IC50) in experiment [2] came to 100 µM; on AMP deaminase 3, 370 µM; at AMP deaminase, 1400 µM; in experiment [3], 310 µM.

`O=C(O)c1cc2c(c(CCc3cnc4cncnn34)c1)CCCC2`: the IC50 in experiment [2] was found to be 2.3 µM; at AMP deaminase 3, 0.9 µM; on AMP deaminase, 200 µM; in experiment [3], 5.7 µM.

`O=C(O)c1cc(CCn2cnc3c2N=CNCC3O)c2c(c1Br)CCCC2` (stereo unspecified) came in with an IC50 on AMP deaminase 1 of 0.5 µM.

With `O=C(O)c1cccc(CCn2cnc3c2NC=NCC3O)c1` (stereo unspecified), in experiment [4], the Ki is 0.51 µM.
